{"source": "patent US20160158252A1", "about": "“PHARMACEUTICAL COMPOSITION AND USE OF DIETHYL (2-CYANOETHYL)PHOSPHONATE” (Olatec Therapeutics LLC, priority 2013, published 2016)", "key": {"[1]": {"test_system": "arachidonic acid-induced ear swelling", "test": "Arachidonic acid-induced ear swelling in mice (intraperitoneal administration)", "assay_type": "in vivo", "conditions": "measured at 90 minutes", "procedure": "The protocols of this experiment were similar to Example 3, except the following differences. Test substance diethyl (2-cyanoethyl) phosphonate was dissolved in PBS to generate 1, 3 and 10 mg/mL testing solutions. Vehicle (PBS) at 10 mL/kg and diethyl (2-cyanoethyl) phosphonate at 10 mL/kg (10, 30, and 100 mg/kg) were administered intraperitoneally at 1 hour, and again 15 minutes before arachidonic acid (0.5 mg/ear) challenge. The positive control dexamethasone was administered orally 3 hours before arachidonic acid.\nAn ANOVA was done, and if p<0.05, a Dunnett's t test was employed to calculate significant difference between vehicle control and treated groups. Significance is set at P<0.05 level.\n(§1) An ANOVA was done, and if p<0.05, a Dunnett's t test was employed to calculate significant difference between vehicle control and test compound treated groups. A pairwise Student's t test was used to calculate differences between the dexamethasone group and the control group. Significance is set at P<0.05 level."}, "[2]": {"test_system": "tail flick reaction to heat (49° C. water bath)", "test": "Tail flick test in mice (oral administration)", "assay_type": "in vivo", "procedure": "Tail flick test is a test of the pain response in animals. Tail flick test is used in basic pain research and to measure the effectiveness of analgesics, by observing the tail flick reaction to heat in an animal. This test assesses the nociceptive response to a local pain stimulus, and the ability of a drug to inhibit this response.\nVehicle control (water) and test compound diethyl (2-cyanoethyl) phosphonate in water were administered by oral gavage to mice with a volume of 10 mL/kg, twice, at 60 and 15 minutes before the first tail flick measurement. The test compound was administered at a dosage of 10, 30, or 100 mg/kg in water. The positive control compound morphine was administered by subcutaneous injection at 8 mg/kg with a volume of 8 mL/kg, at 15 minutes before the first tail flick measurement. Each group had 10 mice.\nThe response of mice to heat stimulus was evaluated by measuring the time of tail-flick or tail-flick latency from 49° C. water bath. Briefly, the animal was placed in a restrainer with its tail hanging down. Approximately 2 inches of the tail was immersed in a beaker of water at 38±1° C. for about 30 seconds, and this was done twice to acclimate the animal to the procedure.\nSubsequently, approximately 2 inches of the tail was immersed in a beaker of water at 49±1° C., at which point a timer was started.\nTail flick measurements were made 60, 80, 100, and 120 minutes post administration of the first dosage of test compound. An ANOVA was done, and if p<0.05, a Dunnett's t test was employed to calculate significant difference between vehicle control and test compound treated groups. A pairwise Student's t test was used to calculate differences between the morphine group and the control group. […] Analysis with p-values <0.05 is considered significant."}, "[3]": {"test_system": "formalin-induced paw licking", "conditions": "for Licks per min (Between 0-10 min) / Licks per min (Between 10-40 min): 375 mM topical BID; for Licks per min (Between 0-10 min): early phase, vehicle 4.4; for Licks per min (Between 10-40 min): late phase, vehicle 1.7", "procedure": "The test compound diethyl (2-cyanoethyl) phosphonate (375 mM in vehicle, n=16) and vehicle control (acetone:ethanol 1:1, n=16) were administered topically by submerging the mouse left hind paw in the respective solution for about 30 seconds. The paw was then withdrawn and wiped with tissue to avoid excess dermal drying.\nPositive control morphine was administered by subcutaneous injection at 4 mg/kg with a volume of 4 mL/kg to mice (n=16).\nMorphine was subcutaneously administered once 15 minutes before formalin injection. The test compounds and vehicle control were topically administered twice (BID), at 90 and 15 minutes before formalin injection.\nFollowing formalin injection, animals were placed in individual cages, and manually observed for 60 minutes. The licking events were recorded in five minute intervals continuously for a total of 40 minutes.\nThe number of licking events per minute was calculated between 0-10 minutes and 10-40 minutes for vehicle, positive control, and test compound. A two-sample t-test was done to compare the vehicle group with the test compound group. Significance is set at P<0.05 level. The same statistics were done comparing the vehicle group with the positive control group."}, "[4]": {"test_system": "IL-6, TNFα, IFNγ, MIP-2 and RANTES", "test": "Pro-inflammatory cytokine release in rat challenged in vivo with lipopolysaccharide", "conditions": "given orally to rat, LPS challenge in vivo"}, "[5]": {"test_system": "arachidonic acid-induced ear swelling", "test": "Topical arachidonic acid-induced ear swelling model in mice (topical administration)", "assay_type": "in vivo, mice (male ICR)", "conditions": "90 minutes after arachidonic acid", "procedure": "The test compound, indomethacin (positive control), and vehicle (acetone:ethanol/1:1) were evaluated for anti-inflammatory activity in a topical arachidonic acid-induced ear swelling model in mice.\nMale ICR mice weighing 22±2 g were used and randomly divided; the test compound and vehicle control had 10 mice, and indomethacin had 5 mice. Arachidonic Acid (0.5 mg in 20 μl of acetone:ethanol/1:1) was applied topically to the anterior and posterior surfaces of the right ear of each mice. Test substances (in vehicle) and vehicle, as listed in Table 3 were similarly applied 30 min before and 15 min after arachidonic acid application. The thickness of the right ear and the left ear was measured and the difference calculated as an indication of the inflammation in the right ear. Ear swelling was measured by a Dyer model micrometer gauge at 60 and 90 minutes after arachidonic acid application as an index of inflammation. Percent inhibition was calculated according to the formula: Ic−It/Ic×100, where Ic and It refers to increase of ear thickness (mm) in control and treated mice, respectively. An ANOVA was done, and if p<0.05, a Dunnett's t test was employed to calculate significant difference between vehicle control and test compound treated groups. A pairwise Student's t test was used to calculate differences between the indomethacin group and the control group. Significance is set at P<0.05 level."}, "[6]": {"test_system": "formalin-induced paw licking", "test": "Formalin test in mice (oral administration)", "assay_type": "in vivo, mice (male CD-1)", "conditions": "for Licks per min (Between 0-10 min): early phase, vehicle 3.3; for Licks per min (Between 10-40 min): late phase, vehicle 1.4", "procedure": "Formalin test is a model of continuous pain resulting from formalin-induced tissue injury. Nociceptive and inflammatory pain was induced by injection of a dilute formalin solution into the paw, resulting in nocifensive behavior including paw flinching. The formalin model encompasses inflammatory, neurogenic, and central mechanism of pain. The early phase of pain (from 0 to about 10 minutes) is due to nociceptive mechanism and the late phase of pain (from 10-40 minutes) is due to a combination of inflammatory pain and nociceptive mechanism. Pain behavior is assessed using manual paw licking measurements. The endpoints of the study are the number of paw licking events. (Hunskaar et al., Pain, 30:103-114, 1987; Li et al., Molecular Pain, 6:11, 2010)\nMale CD-1 mice, about 34 g, were used in the study. Mice had free access to food and water, were maintained on a 12 hour:12 hour light/dark schedule for the entire duration of the study, and housed in soft bedding five per cage.\nImmediately prior to testing (at time 0), mice were restrained in a cloth and injected with 20 μL of a 5% formalin solution, subcutaneously into the dorsal surface of the left hind paw. Vehicle control (n=10, water) and test compound diethyl (2-cyanoethyl) phosphonate (n=9, in water) were administered by oral gavage with a volume of 10 mL/kg to mice. The amounts of test compound were 10, 30, or 100 mg/kg per dose.\nPositive control morphine was administered by subcutaneous injection at 4 mg/kg with a volume of 4 mL/kg to mice (n=10). […] The purpose of morphine is not to serve as a comparison with the test compound.\nMorphine was subcutaneously administered once 15 minutes before formalin injection. The test compounds and vehicle control were orally administered twice (BID), at 60 and 15 minutes before formalin injection at time zero.\nFollowing formalin injection, animals were placed in individual cages, and manually observed for 60 minutes. The licking events were recorded in five minute intervals continuously for a total of 60 minutes.\nas §1, with “The number of licking events per minute was calculated between 0-10 minutes and 10-40 minutes for vehicle, positive control, and test compound. An” for “An”, “morphine” for “dexamethasone”"}, "[7]": {"conditions": "100 mg/kg oral BID, listed as test compound"}}, "note": "Read-outs that look alike come from different tables or passages of the source.", "data": [{"compound": "C[C@@H]1C[C@H]2[C@@H]3CCC4=CC(=O)C=C[C@]4(C)[C@@]3(F)[C@@H](O)C[C@]2(C)[C@@]1(O)C(=O)CO", "note": "[Dexamethasone, dexamethasone, reference compound]", "values": [{"measurement": "% Inhibition of ear swelling", "setting": "[1]; 0.3 mg/kg orally 3 hours before arachidonic acid", "value": 29, "unit": "%"}]}, {"compound": "CCOP(=O)(CCC#N)OCC", "note": "[Diethyl (2-cyanoethyl) phosphonate, Diethyl (2-cyanoethyl)phosphonate]", "values": [{"measurement": "Tail flick latency vs vehicle-treated mice", "setting": "[2]; 30 mg/kg oral, twice, 60, 80, 100, 120 minutes", "value": "statistically significant tail flick latency at 60 and 80 minutes"}, {"measurement": "Tail flick latency vs vehicle-treated mice", "setting": "[2]; 100 mg/kg oral, twice, 60, 80, 100, 120 minutes", "value": "statistically significant tail flick latency at 60 and 100 minutes"}, {"measurement": "Licks per min (Between 0-10 min)", "setting": "[3]", "value": 4.0, "unit": "licks per min"}, {"measurement": "Licks per min (Between 0-10 min)", "setting": "[3]; listed as test compound", "value": "no statistically significant difference"}, {"measurement": "Licks per min (Between 10-40 min)", "setting": "[3]", "value": 1.1, "unit": "licks per min"}, {"measurement": "Licks per min (Between 10-40 min)", "setting": "[3]; listed as test compound", "value": "statistically significant (p<0.05) reduction"}, {"measurement": "Paw licking events after topical application alone without injection of formalin", "setting": "[3]; 375 mM topical, no formalin", "value": "negligible number of paw licking events"}, {"measurement": "Pro-inflammatory cytokine release (IL-6, TNFα, IFNγ, MIP-2 and RANTES)", "setting": "[4]", "value": "effective in inhibiting pro-inflammatory cytokine release"}, {"measurement": "% Inhibition of ear swelling", "setting": "[5]; 375 mM in acetone:ethanol (1:1), 20 μL (1.4 mg/ear) applied twice topically", "value": 55, "unit": "%"}, {"measurement": "% Inhibition of ear swelling", "setting": "[5]; 375 mM in acetone:ethanol (1:1), 20 μL (1.4 mg/ear) applied twice topically, listed as active compound", "value": "anti-inflammatory"}, {"measurement": "% Inhibition of ear swelling", "setting": "[5]; 375 mM in acetone:ethanol (1:1), 20 μL (1.4 mg/ear) applied twice topically, listed as tested compound", "value": 55, "unit": "%"}, {"measurement": "% Inhibition of ear swelling", "setting": "[1]; 10 mg/kg intraperitoneally, twice", "value": "−8", "unit": "%"}, {"measurement": "% Inhibition of ear swelling", "setting": "[1]; 30 mg/kg intraperitoneally, twice", "value": 0, "unit": "%"}, {"measurement": "% Inhibition of ear swelling", "setting": "[1]; 100 mg/kg intraperitoneally, twice", "value": 34, "unit": "%"}, {"measurement": "% Inhibition of ear swelling", "setting": "[1]; 100 mg/kg intraperitoneally, twice, listed as tested compound", "value": 37, "unit": "%"}, {"measurement": "Licking events, difference from control", "setting": "[6]; 10 mg/kg oral BID", "value": "did not show a statically significant difference from control"}, {"measurement": "Licking events, difference from control", "setting": "[6]; 30 mg/kg oral BID", "value": "did not show a statically significant difference from control"}, {"measurement": "Efficacy after 40 minutes (licking events)", "setting": "[6]; 100 mg/kg oral BID", "value": "did not last after 40 minutes"}, {"measurement": "Licks per min (Between 0-10 min)", "setting": "[6]; 100 mg/kg oral BID", "value": 3.1, "unit": "licks per min"}, {"measurement": "Licks per min (Between 0-10 min)", "setting": "[6]; [7]", "value": "no statistically significant difference"}, {"measurement": "Licks per min (Between 10-40 min)", "setting": "[6]; 100 mg/kg oral BID", "value": 0.59, "unit": "licks per min"}, {"measurement": "Licks per min (Between 10-40 min)", "setting": "[6]; [7]", "value": "statistically significant (p<0.05) reduction"}]}, {"compound": "COc1ccc2c(c1)c(CC(=O)O)c(C)n2C(=O)c1ccc(Cl)cc1", "note": "[Indomethacin, indomethacin, reference compound]", "values": [{"measurement": "% Inhibition of ear swelling", "setting": "[5]; 14 mM, 20 μL (0.1 mg/ear) applied twice topically", "value": 58, "unit": "%"}]}, {"compound": "CN1CC[C@]23c4c5ccc(O)c4O[C@H]2[C@@H](O)C=C[C@H]3[C@H]1C5", "note": "[Morphine, morphine, reference compound]", "values": [{"measurement": "Tail flick latency vs vehicle-treated mice", "setting": "[2]; mouse, in vivo", "value": "statistically significant tail flick latency at all measured time points"}, {"measurement": "Efficacy after 40 minutes (licking events)", "setting": "[6]; mouse, in vivo", "value": "did not last after 40 minutes"}]}]}
